Columns and labels:
Assay type in all cases: cell-based
IRE1 E621A, E836A:VHL = molecular target: T1, IRE1 E621A, E836A:VHL (Homo sapiens, UniProt O75460+P40337, E621A/E836A); assay: NanoBRET IRE1:VHL interaction, IRE1 E621A, E836A, HEK293T cells
T1 construct: N2731; host or cells: HEK293T
Description: 8 × 10^5 293T cells per well were seeded in 6-well plates (Costar, #3516) and incubated at 37 °C, 5% CO2 for 6 h. A mixture of 0.2 µg ERN1 (IRE1)-NanoLuc Fusion Vector (Promega, NV1321), 2 µg HaloTag-VHL Fusion Vector (Promega, N2731), 6 µl FuGENE HD Transfection Reagent (Promega, E2311), and 100 µL Opti-MEM I reduced serum medium (Gibco, #31985062) per well was incubated at room temperature for 20 min before adding to cells. For expression of IRE1 mutants, site-directed mutagenesis was performed using the ERN1-NanoLuc Fusion Vector as the DNA template, and the transfection mixture was prepared in the same way as WT IRE1. After 18 h, cells from 6-well plates were trypsinized, resuspended in Opti-MEM I reduced serum medium, and reseeded into 96-well plates (Costar, #3917), with or without the addition of HaloTag NanoBRET 618 Ligand (Promega, G9801). After 18 h of incubation, a titration of G6374 (dilutions made in Opti-MEM I reduced serum medium) was added to the cells. After 2 h of G6374 treatment, NanoBRET Nano-Glo Substrate (Promega, N1571) was added to cells. The 96-well plates were imaged by GloMax Discover Microplate Reader (Promega, GM3000) with the default “BRET: NanoBRET 618” protocol (Donor: 450 BP; Acceptor: 600 LP; Integration: 0.3 s). Data analysis was performed according to the user manual.

AMO1 cells = assay: Incucyte cell confluency, AMO1 cells; conditions: AMO1 shIRE1 cells, titration
Description: (§1) For non-adherent AMO1, KMS27, and OPM2 cells, cells were plated at 5000 cells/well in ultra-low attachment (ULA) 96-well plates (Costar, #7007) and centrifuged at 600 × g for 5 min for spheroid formation. For adherent U2OS and Colo201 cells, 2000 cells/well were seeded in a clear flat-bottom 96-well plate (Costar, #3595). Treatments were added at the time of cell seeding, and cells were cultured in complete RPMI media to a final volume of 200 µL/well. Cultures were maintained at 37 °C throughout the duration of the experiment. Cell confluency was tracked using the Incucyte live-cell imaging system (Sartorius S3). Picture frames were captured every 4 h with a 4× objective, and cell confluency (%) from the total well area as a function of time was calculated using the Incucyte software (version 2023 A Rev2).

KMS27 cells = assay: Incucyte cell confluency, KMS27 cells; conditions: KMS27 shIRE1 cells, titration
Description: as §1

T1 sequence (P62877 whole entry): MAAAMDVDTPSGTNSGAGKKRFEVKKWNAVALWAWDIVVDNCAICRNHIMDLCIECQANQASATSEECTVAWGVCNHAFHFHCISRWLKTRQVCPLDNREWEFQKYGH
T1 sequence (Q15370 whole entry, further chain): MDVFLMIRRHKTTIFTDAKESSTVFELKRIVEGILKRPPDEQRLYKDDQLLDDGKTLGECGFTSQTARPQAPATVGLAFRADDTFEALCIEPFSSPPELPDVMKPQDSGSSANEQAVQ
T1 sequence (Q15369 whole entry, further chain): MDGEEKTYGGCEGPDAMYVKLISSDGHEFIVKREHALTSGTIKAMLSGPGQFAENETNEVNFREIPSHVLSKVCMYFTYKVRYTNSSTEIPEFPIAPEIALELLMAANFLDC
T1 sequence (Q13617 whole entry, further chain): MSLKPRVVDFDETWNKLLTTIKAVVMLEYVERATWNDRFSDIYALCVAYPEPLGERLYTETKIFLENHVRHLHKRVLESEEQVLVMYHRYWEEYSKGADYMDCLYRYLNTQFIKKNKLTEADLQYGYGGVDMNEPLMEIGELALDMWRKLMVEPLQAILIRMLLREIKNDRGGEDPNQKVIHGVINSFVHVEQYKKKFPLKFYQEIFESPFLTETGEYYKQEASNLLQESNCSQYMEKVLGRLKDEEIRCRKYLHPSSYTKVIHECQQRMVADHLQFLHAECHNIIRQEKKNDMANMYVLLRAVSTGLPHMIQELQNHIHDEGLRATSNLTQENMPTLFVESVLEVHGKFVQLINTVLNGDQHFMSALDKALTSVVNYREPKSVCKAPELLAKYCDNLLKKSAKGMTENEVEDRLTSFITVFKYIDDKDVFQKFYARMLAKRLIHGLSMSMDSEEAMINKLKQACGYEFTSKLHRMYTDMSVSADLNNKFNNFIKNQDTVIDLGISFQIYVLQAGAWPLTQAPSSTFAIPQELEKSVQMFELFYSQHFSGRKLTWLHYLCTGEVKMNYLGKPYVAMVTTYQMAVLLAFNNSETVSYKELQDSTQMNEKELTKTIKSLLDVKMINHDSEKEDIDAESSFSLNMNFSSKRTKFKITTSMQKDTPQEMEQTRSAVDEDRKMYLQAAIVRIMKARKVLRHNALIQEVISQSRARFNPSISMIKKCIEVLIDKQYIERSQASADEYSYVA
T1 sequence (P40337 whole entry): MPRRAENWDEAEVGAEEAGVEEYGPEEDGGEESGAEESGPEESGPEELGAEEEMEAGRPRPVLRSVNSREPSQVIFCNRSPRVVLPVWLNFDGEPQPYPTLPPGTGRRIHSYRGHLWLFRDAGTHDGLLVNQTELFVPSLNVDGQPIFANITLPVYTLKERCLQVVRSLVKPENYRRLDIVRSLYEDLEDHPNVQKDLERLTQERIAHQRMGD
T1 sequence (O75460 19-977 E621A/E836A): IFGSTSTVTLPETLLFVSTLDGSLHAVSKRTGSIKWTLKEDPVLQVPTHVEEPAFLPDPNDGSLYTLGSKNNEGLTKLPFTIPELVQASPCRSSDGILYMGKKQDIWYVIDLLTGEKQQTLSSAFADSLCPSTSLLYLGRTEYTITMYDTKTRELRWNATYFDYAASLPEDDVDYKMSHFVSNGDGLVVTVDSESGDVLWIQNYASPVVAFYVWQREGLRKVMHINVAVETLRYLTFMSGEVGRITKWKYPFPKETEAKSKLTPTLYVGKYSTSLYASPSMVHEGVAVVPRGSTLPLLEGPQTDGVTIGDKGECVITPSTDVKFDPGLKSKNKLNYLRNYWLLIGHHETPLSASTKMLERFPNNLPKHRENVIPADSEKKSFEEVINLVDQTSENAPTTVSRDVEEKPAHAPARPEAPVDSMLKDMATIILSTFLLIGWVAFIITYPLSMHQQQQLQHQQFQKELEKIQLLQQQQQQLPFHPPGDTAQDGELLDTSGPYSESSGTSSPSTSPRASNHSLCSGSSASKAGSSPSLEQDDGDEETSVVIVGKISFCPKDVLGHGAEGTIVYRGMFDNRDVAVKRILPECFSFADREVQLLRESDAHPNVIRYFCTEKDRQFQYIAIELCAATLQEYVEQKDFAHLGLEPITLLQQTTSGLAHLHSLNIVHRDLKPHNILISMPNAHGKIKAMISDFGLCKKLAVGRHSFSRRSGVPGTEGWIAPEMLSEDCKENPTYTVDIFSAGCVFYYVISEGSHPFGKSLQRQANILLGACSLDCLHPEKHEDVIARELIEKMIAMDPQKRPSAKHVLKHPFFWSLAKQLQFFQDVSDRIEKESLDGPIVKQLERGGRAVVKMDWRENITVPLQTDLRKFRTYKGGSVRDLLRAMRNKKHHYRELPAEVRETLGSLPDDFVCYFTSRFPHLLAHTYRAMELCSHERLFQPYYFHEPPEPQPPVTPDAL

## Cc1ncsc1-c1ccc(CNC(=O)[C@@H]2C[C@@H](O)CN2C(=O)[C@@H](NC(=O)CCCCN2CCN([C@H]3CC[C@H](Nc4ncc5ccc(=O)n(C(C)C)c5n4)CC3)CC2)C(C)(C)C)cc1 [G6374]
IRE1 E621A, E836A:VHL
  EC50: 50 ± 20 nM
AMO1 cells
  growth inhibition (cell confluency): concentration-dependent growth inhibition
KMS27 cells
  growth inhibition (cell confluency): concentration-dependent growth inhibition
